Tested on: 624824-186-R-J2-PDC multicell spheroids, viability
Assay: Anticancer human tumor 624824-186-R-J2-PDC patient-derived colon adenocarcinoma cell line growth inhibition [PI3K]
Details: for IC50: curve of first compound; for viability, T/C: stronger effect = lower value
In short: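 Spheroid viability read-out. Co-cultures contained the tumor line plus HUVEC and human MSCs. Each agent was paired with a PI3K inhibitor (inavolisib, alpelisib, duvelisib, copanlisib) across half-log dilutions starting at clinical Cmax, or at 10 microM when Cmax was unknown.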

[1] = second compound 0.0316 µM, first compound 0.000316 µM
[2] = second compound 0.0316 µM, first compound 0.001 µM
[3] = second compound 0.0316 µM, first compound 0.00316 µM
[4] = second compound 0.0316 µM, first compound 0.01 µM
[5] = second compound 0.0316 µM, first compound 0.0316 µM
[6] = second compound 0.0316 µM, first compound 0.1 µM
[7] = second compound 0.1 µM, first compound 0.000316 µM
[8] = second compound 0.1 µM, first compound 0.001 µM
[9] = second compound 0.1 µM, first compound 0.00316 µM
[10] = second compound 0.1 µM, first compound 0.01 µM
[11] = second compound 0.1 µM, first compound 0.0316 µM
[12] = second compound 0.1 µM, first compound 0.1 µM
[13] = second compound 0.316 µM, first compound 0.000316 µM
[14] = second compound 0.316 µM, first compound 0.001 µM
[15] = second compound 0.316 µM, first compound 0.00316 µM
[16] = second compound 0.316 µM, first compound 0.01 µM
[17] = second compound 0.316 µM, first compound 0.0316 µM
[18] = second compound 0.316 µM, first compound 0.1 µM
[19] = second compound 1 µM, first compound 0.000316 µM
[20] = second compound 1 µM, first compound 0.001 µM
[21] = second compound 1 µM, first compound 0.00316 µM
[22] = second compound 1 µM, first compound 0.01 µM
[23] = second compound 1 µM, first compound 0.0316 µM
[24] = second compound 1 µM, first compound 0.1 µM
[25] = second compound 3.16 µM, first compound 0.000316 µM
[26] = second compound 3.16 µM, first compound 0.001 µM
[27] = second compound 3.16 µM, first compound 0.00316 µM
[28] = second compound 3.16 µM, first compound 0.01 µM
[29] = second compound 3.16 µM, first compound 0.0316 µM
[30] = second compound 3.16 µM, first compound 0.1 µM
[31] = second compound 10 µM, first compound 0.000316 µM
[32] = second compound 10 µM, first compound 0.001 µM
[33] = second compound 10 µM, first compound 0.00316 µM
[34] = second compound 10 µM, first compound 0.01 µM
[35] = second compound 10 µM, first compound 0.0316 µM
[36] = second compound 10 µM, first compound 0.1 µM
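Note: spheroids exposed to agents for 7 days before viability read.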
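Throughout, for viability, T/C: 100% = DMSO vehicle treated spheroids.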

CC(=O)c1c(C)c2cnc(Nc3ccc(N4CCNCC4)cn3)nc2n(C2CCCC2)c1=O + CC(Nc1ncnc2nc[nH]c12)c1cc2cccc(Cl)c2c(=O)n1-c1ccccc1
IC50 (second compound 0.0316 µM): > 100 nM
IC50 (second compound 0.1 µM): > 100 nM
IC50 (second compound 0.316 µM): > 100 nM
IC50 (second compound 1 µM): > 100 nM
IC50 (second compound 3.16 µM): > 100 nM
IC50 (second compound 10 µM): > 100 nM
viability, T/C [1]: 78.8%
viability, T/C [2]: 118%
viability, T/C [3]: 98.7%
viability, T/C [4]: 98.5%
viability, T/C [5]: 80.5%
viability, T/C [6]: 86.1%
viability, T/C [7]: 107%
viability, T/C [8]: 85.2%
viability, T/C [9]: 84.4%
viability, T/C [10]: 79.9%
viability, T/C [11]: 90%
viability, T/C [12]: 93.5%
viability, T/C [13]: 121%
viability, T/C [14]: 134%
viability, T/C [15]: 79.8%
viability, T/C [16]: 77.5%
viability, T/C [17]: 78.2%
viability, T/C [18]: 93%
viability, T/C [19]: 111%
viability, T/C [20]: 96.6%
viability, T/C [21]: 89.5%
viability, T/C [22]: 108%
viability, T/C [23]: 88.6%
viability, T/C [24]: 92.6%
viability, T/C [25]: 98.8%
viability, T/C [26]: 83.6%
viability, T/C [27]: 91.9%
viability, T/C [28]: 111%
viability, T/C [29]: 88.5%
viability, T/C [30]: 84%
viability, T/C [31]: 112%
viability, T/C [32]: 110%
viability, T/C [33]: 107%
viability, T/C [34]: 96.3%
viability, T/C [35]: 92.4%
viability, T/C [36]: 94%

CC(C)n1nc(-c2ccc3oc(N)nc3c2)c2c(N)ncnc21 + CC(Nc1ncnc2nc[nH]c12)c1cc2cccc(Cl)c2c(=O)n1-c1ccccc1
IC50 (second compound 0.0316 µM): > 100 nM
IC50 (second compound 0.1 µM): > 100 nM
IC50 (second compound 0.316 µM): > 100 nM
IC50 (second compound 1 µM): > 100 nM
IC50 (second compound 3.16 µM): > 100 nM
IC50 (second compound 10 µM): > 100 nM
viability, T/C [1]: 108%
viability, T/C [2]: 113%
viability, T/C [3]: 83%
viability, T/C [4]: 76.7%
viability, T/C [5]: 75.7%
viability, T/C [6]: 77.9%
viability, T/C [7]: 94.3%
viability, T/C [8]: 81.9%
viability, T/C [9]: 105%
viability, T/C [10]: 85.8%
viability, T/C [11]: 81.5%
viability, T/C [12]: 75.2%
viability, T/C [13]: 87.5%
viability, T/C [14]: 77.3%
viability, T/C [15]: 73.6%
viability, T/C [16]: 83.3%
viability, T/C [17]: 86.8%
viability, T/C [18]: 75.8%
viability, T/C [19]: 93.2%
viability, T/C [20]: 99%
viability, T/C [21]: 91.6%
viability, T/C [22]: 79.2%
viability, T/C [23]: 84.8%
viability, T/C [24]: 90.6%
viability, T/C [25]: 101%
viability, T/C [26]: 90.5%
viability, T/C [27]: 82.3%
viability, T/C [28]: 90.5%
viability, T/C [29]: 87.7%
viability, T/C [30]: 78.2%
viability, T/C [31]: 109%
viability, T/C [32]: 96.7%
viability, T/C [33]: 82.7%
viability, T/C [34]: 95.5%
viability, T/C [35]: 81.2%
viability, T/C [36]: 78.6%

CCCS(=O)(=O)Nc1ccc(F)c(C(=O)c2c[nH]c3ncc(-c4ccc(Cl)cc4)cc23)c1F + CC(Nc1ncnc2nc[nH]c12)c1cc2cccc(Cl)c2c(=O)n1-c1ccccc1
IC50 (second compound 0.0316 µM): > 10000 nM
IC50 (second compound 0.1 µM): 8610 nM
IC50 (second compound 0.316 µM): > 10000 nM
IC50 (second compound 1 µM): 9470 nM
IC50 (second compound 3.16 µM): > 10000 nM
IC50 (second compound 10 µM): 6820 nM
viability, T/C [5]: 90.2%
viability, T/C [6]: 74.8%
viability, T/C (second compound 0.0316 µM, first compound 0.316 µM): 92.9%
viability, T/C (second compound 0.0316 µM, first compound 1 µM): 84%
viability, T/C (second compound 0.0316 µM, first compound 3.16 µM): 133%
viability, T/C (second compound 0.0316 µM, first compound 10 µM): 66.6%
viability, T/C [11]: 108%
viability, T/C [12]: 80.1%
viability, T/C (second compound 0.1 µM, first compound 0.316 µM): 90%
viability, T/C (second compound 0.1 µM, first compound 1 µM): 74.8%
viability, T/C (second compound 0.1 µM, first compound 3.16 µM): 128%
viability, T/C (second compound 0.1 µM, first compound 10 µM): 43%
viability, T/C [17]: 113%
viability, T/C [18]: 85.1%
viability, T/C (second compound 0.316 µM, first compound 0.316 µM): 72.8%
viability, T/C (second compound 0.316 µM, first compound 1 µM): 111%
viability, T/C (second compound 0.316 µM, first compound 3.16 µM): 130%
viability, T/C (second compound 0.316 µM, first compound 10 µM): 65.5%
viability, T/C [23]: 83.5%
viability, T/C [24]: 65.2%
viability, T/C (second compound 1 µM, first compound 0.316 µM): 81%
viability, T/C (second compound 1 µM, first compound 1 µM): 103%
viability, T/C (second compound 1 µM, first compound 3.16 µM): 125%
viability, T/C (second compound 1 µM, first compound 10 µM): 47.8%
viability, T/C [29]: 110%
viability, T/C [30]: 88.1%
viability, T/C (second compound 3.16 µM, first compound 0.316 µM): 70.1%
viability, T/C (second compound 3.16 µM, first compound 1 µM): 77.3%
viability, T/C (second compound 3.16 µM, first compound 3.16 µM): 109%
viability, T/C (second compound 3.16 µM, first compound 10 µM): 52.9%
viability, T/C [35]: 112%
viability, T/C [36]: 95%
viability, T/C (second compound 10 µM, first compound 0.316 µM): 80.3%
viability, T/C (second compound 10 µM, first compound 1 µM): 79.9%
viability, T/C (second compound 10 µM, first compound 3.16 µM): 83.4%
viability, T/C (second compound 10 µM, first compound 10 µM): 35.2%
